CN1COCNC1=N[N+](=O)[O-]
solubility (mole fraction)
Conditions	293.15 K	298.15 K	303.15 K	308.15 K	313.15 K	318.15 K	323.15 K
in DMF	0.0947	0.113	0.12	0.138	0.141	0.165	0.166
in DMSO	0.0794	0.0978	0.104	0.115	0.12	0.123	0.14
in acetonitrile	0.0241	0.0318	0.0336	0.0411	0.0436	0.0547	0.0563
in dichloromethane	0.0126	0.0154	0.0162	0.0233	0.0234	0.0265	0.0277
in ethanol	0.00163	0.00212	0.00241	0.00351	0.00379	0.00445	0.00507
in ethyl acetate	0.00579	0.00614	0.00633	0.0074	0.00773	0.00866	0.0106
in ethylene glycol	0.00157	0.00248	0.00289	0.00439	0.00447	0.00527	0.00893
in isopropanol	0.00101	0.0013	0.0013	0.00175	0.00242	0.00285	0.00303
in methanol	0.00289	0.00422	0.00447	0.00532	0.00682	0.00759	0.00978
in methyl acetate	0.00741	0.00839	0.00936	0.0115	0.0124	0.0133	0.0157
in n-butanol	0.00199	0.00218	0.00234	0.00279	0.00308	0.00321	0.00362
in n-propanol	0.00109	0.00146	0.00195	0.00217	0.00247	0.00301	0.00441

Reference: BigSolDB 2.1
